Data set [1] in a line: Filterability, electrostatic nature and flowability of the solid. It counts as physicochemical. Conditions: no comparator stated.
Data set [2] is described as follows: Specific surface area (Micromeritic Gemini VII 2390 Surface Analyzer). It counts as physicochemical. As to the method: Specific surface area was determined using a Micromeritic® Gemini® VII 2390 Surface Analyzer (Software: Gemini VII, version 1.03).

The results in this text go back to patent publication US20170240543A1, “CRYSTALLINE FORMS OF PALBOCICLIB” (Sun Pharmaceutical Industries Limited, priority 2014, published 2017).

Consider `CC(=O)c1c(C)c2cnc(Nc3ccc(N4CCNCC4)cn3)nc2n(C2CCCC2)c1=O` [Form V-A, 6-acetyl-8-cyclopentyl-5-methyl-2-[[5-(1-piperazinyl)-2-pyridinyl]amino]pyrido[2,3-d]pyrimidin-7(8H)-one], for which the “filterability, electrostatic nature, and flowability” value in data set [1] was “improved”. For the same compound, the “specific surface area (SSA)” value in data set [2] was “greater than 2 m^2/g”.
